# Assay results as given in patent US5440041A, “Acetal or ketal substituted xanthine compounds” (Cell Therapeutics, Inc., priority 1994, dated 1995).
# Experiments:
# certain cytokines = details: U.S. Pat. No. 4,965,271 and U.S. Pat. No. 5,096,906; cited from earlier work
# [1] = tested on: polymorphonuclear leukocytes; details: in response to a stimulator of chemotaxis; U.S. Pat. No. 4,636,507; cited from earlier work
# [2] = tested on: tumor necrosis factor (TNF); details: PTX recipients; cited from earlier work
# PAPH = test: Inhibition of PAPH; format: biochemical; details: specific activation pathway not involving PI; substrates with 1,2-diunsaturated and 1-alkyl,2-unsaturated subspecies
# Description: One in vitro assay measures inhibition of the relevant enzymes lysophosphatidic acid acyltransferase (LPAAT) and phosphatidic acid phosphoryl hydrolase (PAPH). The assay involves incubating of target cells with a primary stimulus (e.g., a variety of cytokines, growth factors, oncogene products, putative therapeutic agents, irradiation, viral infection, toxins, bacterial infection and the products thereof, and any stimulus which, if not counteracted, has a deleterious effect on the target cell) in the presence or absence of an inventive compound at varying dosage levels. […] It is important to note that the assay method permits discrimination between various forms of PA and DAG so that those relevant to the pathway affected by the (R) or (S) compounds of the invention can be measured directly. […] Thus, the relevant unsaturated (non-arachidonic) PA and DAG subspecies may be detected. […]
structure (smiles),measurement,setting,value
"CC(=O)CCCCn1c(=O)c2c(ncn2C)n(C)c1=O [PTX, 1-(5-oxohexyl)-3,7-dimethylxanthine]",effect on activity of certain cytokines to affect chemotaxis,certain cytokines,inhibit activity of certain cytokines to affect chemotaxis
same,effect on chemotaxis in polymorphonuclear leukocytes,[1],stimulate chemotaxis
same,TNF levels in normal volunteers,[2],higher among PTX recipients
same,effect on PAPH,PAPH,blocks PAPH in a specific activation pathway
